Reference: paper PMC6934184, “Selective DNA-PKcs inhibition extends the therapeutic index of localized radiotherapy and chemotherapy” (The Journal of Clinical Investigation, 2019)

Target: T1, PRKCG (PKC gamma) (Homo sapiens, UniProt P05129)
T1 construct: purchased Thermo Fisher Scientific (Life Technologies) SelectScreen
Test: SelectScreen Z'LYTE
Assay type: biochemical
Summary of the method: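 Percent values come from Thermo SelectScreen profiling of NU5455, combining activity and binding assays. CSF1R was run in Z'LYTE format at Km app ATP, and CAMK1 in Adapta format with ATP listed at 10.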

For CN(C(=O)CN1CCOCC1)c1ccc2sc3c(-c4cccc5c(=O)cc(N6CC7CCC(C6)O7)oc45)cccc3c2c1 [NU5455], the inhibition at 1 µM was 7.6%.
